According to paper PMC5374622, “Morintides: cargo-free chitin-binding peptides from Moringa oleifera” (BMC Plant Biology, 2017):
Positions of bridges follow the written chain, without caps; N, C: chain ends. Non-standard residues stand in square brackets, D forms with d. No end group written: not given here. pGlu = O=C1CC[C@@H](C(=O)O)N1

Legend:
[1] = assay type: physicochemical
Procedure: Purified mO1 (40 μg) was dissolved in water and incubated at 100 °C for 1 h. A linear peptide RV-14 ([…]) synthesized in our laboratory was used as a control. After incubation, the samples were subjected to RP-UPLC to assess the presence and extent of degradation.

[2] = Proteolytic enzyme stability assay, carboxypeptidase A; assay type: in vitro ADME; settings: isolated enzyme carboxypeptidase, 50 mM Tris-HCl with 100 mM NaCl pH 7.5, 37 °C, peptide:enzyme 50:1 (w/w), RP-UPLC area under the curve, MALDI-TOF MS, read-out: peptide remained intact after carboxypeptidase A treatment
Procedure: (§1) Purified mO1 was incubated at 37 °C with pepsin or carboxypeptidase A in 100 mM sodium citrate (pH 4.5) or 50 mM Tris–HCl with 100 mM NaCl (pH 7.5) at a final peptide to enzyme ratio (w/w) of 20:1 and 50:1, respectively. At each time point (0, 2, 4, 6 h) 50 μL of the sample was injected into the UPLC system, and the mass of peaks collected were analyzed by MALDI-TOF MS. A linear peptide WV-14 (WRLYRGRLYRRNHV) synthesized in-house was used as a control.

Vero cells = test: Cytotoxicity assay (PrestoBlue cell viability); assay type: cell-based; settings: concentrations up to 100 μM (1–100 μM), 24 h, DMEM 10% FBS, absorbance 570 nm
Procedure: The cytotoxic effect of morintide, mO1 (1–100 μM) was tested on Vero cells (5 × 10^4 cells/ml) in Dulbecco’s modified Eagle’s medium (DMEM) supplemented with 10% fetal bovine serum (FBS) and 1% penicillin/streptomycin (PS). Vero cells (ATCC CCL-81) were a kind gift from Dr Liu Ding Xiang (School of Biological Sciences, Nanyang Technological University, Singapore). After 24 h of incubation, 10 μl of PrestoBlue® Cell Viability Reagent (Invitrogen, USA) was added to the wells and incubated at 37 °C for 1 h. After incubation, the absorbance was measured at 570 nm using a microplate reader.

[3] = test system: Alternaria alternata (CICC 2465); test: Disc diffusion assay; assay type: cell-based; settings: 17.5 to 70 μg mO1 on 6 mm discs, PDA plates, 24 h at 25 °C
Procedure: (§2) The susceptibility of seven fungal strains obtained from the China Center of Industrial Culture Collection (CICC), namely, Curvularia lunata (CICC 40301), Fusarium oxysporum (CICC 2532), Aspergillus niger (CICC 2089), Verticillium dahilae (CICC 2534), Rhizoctonia solani (CICC 40259), Alternaria alternata (CICC 2465) and Alternaria brassiciola (CICC 2646) to mO1 (17.5 to 70 μg) was tested using a disc diffusion assay. Potato dextrose agar (PDA) plates were used to grow C. lunata, R. solani, V. dahilae A. alternata, and A. brassiciola (A. niger was grown on malt extract (ME) agar plates) at 25 °C. When sufficient growth was observed, the mycelia were harvested by punching a hole in the growing fungi and transferring it to a new agar plate. The plate was incubated at 25 °C for 48 h to 72 h to allow formation of a radial mycelial colony. 6 mm discs impregnated with 20 μL of mO1 were placed equidistant (1 cm) from the growing ends of the mycelia and incubated for 24 h at 25 °C. Deionized water was used as a negative control. Formation of arc-shaped inhibition zones indicated susceptibility to mO1.

[4] = test system: Alternaria brassiciola (CICC 2646); test: Disc diffusion assay; assay type: cell-based; settings: 17.5 to 70 μg mO1 on 6 mm discs, PDA plates, 24 h at 25 °C
Procedure: as §2

[5] = Chitin binding assay with chitin beads
Procedure: Purified morintide (mO1) was incubated with chitin beads (New England Biolabs, Massachusetts, […]) in chitin binding buffer (140 mM NaCl, 10 mM Tris EDTA 1 mM; pH 8.0; then, 0.1% (v/v) Tween 20 was added) at 4 °C for 4 h. At each time point, the beads were centrifuged at 12,000 g for 1 min and the absorbance of the supernatant was read at 280 nm to assess binding. Elution of the bound peptide was performed using two methods. In the first method, 0.5 M acetic acid and heating at 100 °C for 30 min and 1 h was used, and in the second method, four elution buffers (10 mM Tris, 1 mM EDTA, 0.1% (v/v) Tween 20; pH 8.0) with increasing concentration of sodium chloride (300 mM, 500 mM, 700 mM, and 1 M) were used. Reduced and alkylated mO1 was used as a control. Supernatants were further analyzed by UPLC and MALDI-TOF to assess binding and elution.

[6] = Proteolytic enzyme stability assay, pepsin; assay type: in vitro ADME; settings: isolated enzyme pepsin, 100 mM sodium citrate pH 4.5, 37 °C, peptide:enzyme 20:1 (w/w), RP-UPLC area under the curve, MALDI-TOF MS, read-out: peptide remained intact after pepsin treatment
Procedure: as §1

Row | Substance | peptide degraded on heating [1] | remaining at 6 h [2] | cytotoxic effect on Vero cells (Vero cells) | susceptibility (crescent-/arc-shaped inhibition zones) [3] | susceptibility (crescent-/arc-shaped inhibition zones) [4] | peptide remained intact after heating ([1]; 40 μg in water, 100 °C for 1 h, area under the curve of RP-UPLC chromatograms) | time for elution from chitin beads with 0.5 M acetic acid with heating at 100 °C ([5]; 0.5 M acetic acid, 100 °C, RP-UPLC) | elution from chitin beads with elution buffers with up to 1 M NaCl ([5]; elution buffers 10 mM Tris, 1 mM EDTA, 0.1% Tween 20, pH 8.0 with 300 mM, 500 mM, 700 mM, 1 M NaCl) | time for elution from chitin beads in acidic conditions at high temperature ([5]; legend of Figure S2, acidic conditions at high temperature) | remaining at 6 h [6]
1 | RLYRRGRLYRRNHV [RV-14, linear peptide synthesized in the authors' laboratory, control in the thermal stability assay, reference compound] | More than 50% |  |  |  |  |  |  |  |  | 
2 | [pGlu]NCGRQAGNRACANQLCCSQYGFCGSTSEYCSRANGCQSNCRG (disulfide 3-18, 12-24, 17-31, 37-41) [mO1] |  | > 95% | No significant cytotoxic effect | susceptible | susceptible | more than 95% | 1 h | could not be eluted | 30 min | > 95%
